This note sets out measurements from PubChem BioAssay (NCI).

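Dose response: 5 concentrations. Exposure: 48 h. Format: 96-well plates. Endpoint: linear interpolation; highest concentration if not reached. TGI marks complete inhibition of growth.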

The subject of the first assay is UO-31 renal. Kind of assay: NCI anticancer screen, dose series, 48 h.
With `CCCCCCCCCCCCC/C=C/[C@@H](O)[C@H](COC1OC(CO)C(OC2OC(CO)C(O)C(OC3(C(=O)O)CC(O)C(NC(C)=O)C(C(O)C(O)CO)O3)C2O)C(O)C1O)N=[N+]=[N-]` (some centres undefined), the TGI worked out at 44.1 µM.

`COc1ccc2c(c1)C(=O)OCCC2` gave a TGI of more than 100 µM.

Compound `COc1ccc(-n2cnn3c(=O)c4cn[nH]c4nc23)cc1` showed a TGI of more than 10 µM.

As to `CCOC(=O)C1(C/C=C/CBr)CCc2ccccc2C1=O` (centres undefined), the TGI amounted to 30.9 µM.

On to `COc1cc(C(C)=O)cc(C(=O)N(C(C)C)C(C)C)c1[Si](C)(C)C`, for which the TGI was more than 100 µM.

In the case of `CCCCSC1=N/C(=C\c2ccco2)C(Cl)=N1`, the TGI was more than 100 µM.

For the compound `c1ccc(NN=C(c2ccccn2)c2ccccn2)nc1`, the TGI stood at 0.513 µM.

Compound `N#Cc1[nH]c(=S)[nH]c1N` came in with a TGI of more than 100 µM.

`O=C(N[C@@H](c1ccccc1)[C@@H](O)C(=O)OCc1ccc([N+](=O)[O-])cc1)c1ccccc1` gave a TGI of more than 100 µM.

Take `Cc1ccccc1N/C(=C(/C(Cl)=C(Cl)Cl)[N+](=O)[O-])n1nnc2ccccc21`: the TGI was found to be 31.8 µM.

Take `COc1ccc(-c2csc(Cc3nc4ccccc4c(=O)n3-c3ccc(Cl)cc3)n2)cc1`: the TGI is more than 100 µM.

`COc1ccc2[nH]c3c(c2c1)CC(=S)N1CCCC(CC3=O)C1` (centres undefined) came in with a TGI of more than 100 µM.

`CN(C)CCNC(=O)c1ccc2nc3c(nc2c1)C(=O)c1ccccc1-3` showed a TGI of more than 100 µM.

`CC1(C)CC(=O)C(C=NC(=O)c2ccncc2)=C(O)C1` came in with a TGI of more than 100 µM.

On to `CCOC(=O)CO/N=C1/C(c2c(O)[nH]c3ccccc23)=Nc2ccccc21`, for which the TGI is more than 100 µM.

Another assay deals with 786-0 renal. In words: NCI anticancer screen, dose series, 48 h.
On to `CCCCCCCCCCCCC/C=C/[C@@H](O)[C@H](COC1OC(CO)C(OC2OC(CO)C(O)C(OC3(C(=O)O)CC(O)C(NC(C)=O)C(C(O)C(O)CO)O3)C2O)C(O)C1O)N=[N+]=[N-]` (some centres undefined), for which the TGI was more than 100 µM.

Regarding `COc1ccc2c(c1)C(=O)OCCC2`, the TGI was more than 100 µM.

As for `COc1ccc(-n2cnn3c(=O)c4cn[nH]c4nc23)cc1`, the TGI was more than 10 µM.

As to `CCOC(=O)C1(C/C=C/CBr)CCc2ccccc2C1=O` (centres undefined), the TGI amounted to 31.2 µM.

With `COc1cc(C(C)=O)cc(C(=O)N(C(C)C)C(C)C)c1[Si](C)(C)C`, the TGI is more than 100 µM.

`CCCCSC1=N/C(=C\c2ccco2)C(Cl)=N1` showed a TGI of more than 100 µM.

Regarding `CN1CCc2c(sc3ncn(C)c(=N)c23)C1`, the TGI was more than 100 µM.

`c1ccc(NN=C(c2ccccn2)c2ccccn2)nc1` came in with a TGI of more than 100 µM.

Compound `N#Cc1[nH]c(=S)[nH]c1N` showed a TGI of more than 100 µM.

As for `O=C(N[C@@H](c1ccccc1)[C@@H](O)C(=O)OCc1ccc([N+](=O)[O-])cc1)c1ccccc1`, the TGI is more than 100 µM.

Consider `Cc1ccccc1N/C(=C(/C(Cl)=C(Cl)Cl)[N+](=O)[O-])n1nnc2ccccc21`, for which the TGI is more than 100 µM.

In turn, `COc1ccc(-c2csc(Cc3nc4ccccc4c(=O)n3-c3ccc(Cl)cc3)n2)cc1` gave a TGI of more than 100 µM.

In turn, `COc1ccc2[nH]c3c(c2c1)CC(=S)N1CCCC(CC3=O)C1` (centres undefined) showed a TGI of more than 100 µM.

For `CN(C)CCNC(=O)c1ccc2nc3c(nc2c1)C(=O)c1ccccc1-3`, the TGI was more than 100 µM.

`CC1(C)CC(=O)C(C=NC(=O)c2ccncc2)=C(O)C1` showed a TGI of more than 100 µM.

In turn, `CCOC(=O)CO/N=C1/C(c2c(O)[nH]c3ccccc23)=Nc2ccccc21` registered a TGI of more than 100 µM.

Another assay deals with IGROV1 ovarian. In words: NCI anticancer screen, dose series, 48 h.
With `CCCCCCCCCCCCC/C=C/[C@@H](O)[C@H](COC1OC(CO)C(OC2OC(CO)C(O)C(OC3(C(=O)O)CC(O)C(NC(C)=O)C(C(O)C(O)CO)O3)C2O)C(O)C1O)N=[N+]=[N-]` (some centres undefined), the TGI was determined as 85.5 µM.

`COc1ccc2c(c1)C(=O)OCCC2` yielded a TGI of more than 100 µM.

The compound `CCOC(=O)C1(C/C=C/CBr)CCc2ccccc2C1=O` (centres undefined) showed a TGI of 26.2 µM.

Consider `COc1cc(C(C)=O)cc(C(=O)N(C(C)C)C(C)C)c1[Si](C)(C)C`, for which the TGI was more than 100 µM.

`CCCCSC1=N/C(=C\c2ccco2)C(Cl)=N1` gave a TGI of more than 100 µM.

As to `CN1CCc2c(sc3ncn(C)c(=N)c23)C1`, the TGI is more than 100 µM.

As for `c1ccc(NN=C(c2ccccn2)c2ccccn2)nc1`, the TGI was more than 100 µM.

In the case of `N#Cc1[nH]c(=S)[nH]c1N`, the TGI was more than 100 µM.

Turning to `O=C(N[C@@H](c1ccccc1)[C@@H](O)C(=O)OCc1ccc([N+](=O)[O-])cc1)c1ccccc1`, the TGI is more than 100 µM.

In turn, `COc1ccc(-c2csc(Cc3nc4ccccc4c(=O)n3-c3ccc(Cl)cc3)n2)cc1` yielded a TGI of more than 100 µM.

For `COc1ccc2[nH]c3c(c2c1)CC(=S)N1CCCC(CC3=O)C1` (centres undefined), the TGI was more than 100 µM.

In the case of `CN(C)CCNC(=O)c1ccc2nc3c(nc2c1)C(=O)c1ccccc1-3`, the TGI is more than 100 µM.

For the compound `CC1(C)CC(=O)C(C=NC(=O)c2ccncc2)=C(O)C1`, the TGI is more than 100 µM.

Compound `CCOC(=O)CO/N=C1/C(c2c(O)[nH]c3ccccc23)=Nc2ccccc21` returned a TGI of 79.2 µM.

The subject of the next assay is SK-OV-3 ovarian. In words: NCI anticancer screen, dose series, 48 h.
As to `CCCCCCCCCCCCC/C=C/[C@@H](O)[C@H](COC1OC(CO)C(OC2OC(CO)C(O)C(OC3(C(=O)O)CC(O)C(NC(C)=O)C(C(O)C(O)CO)O3)C2O)C(O)C1O)N=[N+]=[N-]` (some centres undefined), the TGI came out at 78.8 µM.

Compound `COc1ccc2c(c1)C(=O)OCCC2` gave a TGI of more than 100 µM.

In turn, `COc1ccc(-n2cnn3c(=O)c4cn[nH]c4nc23)cc1` came in with a TGI of more than 10 µM.

`CCOC(=O)C1(C/C=C/CBr)CCc2ccccc2C1=O` (centres undefined) displayed a TGI of 33.1 µM.

Compound `COc1cc(C(C)=O)cc(C(=O)N(C(C)C)C(C)C)c1[Si](C)(C)C` came in with a TGI of 99.2 µM.

`CCCCSC1=N/C(=C\c2ccco2)C(Cl)=N1` registered a TGI of more than 100 µM.

`CN1CCc2c(sc3ncn(C)c(=N)c23)C1` returned a TGI of more than 100 µM.

Compound `c1ccc(NN=C(c2ccccn2)c2ccccn2)nc1` displayed a TGI of more than 100 µM.

On to `N#Cc1[nH]c(=S)[nH]c1N`, for which the TGI is more than 100 µM.

With `O=C(N[C@@H](c1ccccc1)[C@@H](O)C(=O)OCc1ccc([N+](=O)[O-])cc1)c1ccccc1`, the TGI is more than 100 µM.

On to `Cc1ccccc1N/C(=C(/C(Cl)=C(Cl)Cl)[N+](=O)[O-])n1nnc2ccccc21`, for which the TGI came to 40.7 µM.

Compound `COc1ccc(-c2csc(Cc3nc4ccccc4c(=O)n3-c3ccc(Cl)cc3)n2)cc1` had a TGI of more than 100 µM.

`COc1ccc2[nH]c3c(c2c1)CC(=S)N1CCCC(CC3=O)C1` (centres undefined) registered a TGI of more than 100 µM.

Consider `CN(C)CCNC(=O)c1ccc2nc3c(nc2c1)C(=O)c1ccccc1-3`, for which the TGI is more than 100 µM.

`CC1(C)CC(=O)C(C=NC(=O)c2ccncc2)=C(O)C1` had a TGI of more than 100 µM.

With `CCOC(=O)CO/N=C1/C(c2c(O)[nH]c3ccccc23)=Nc2ccccc21`, the TGI was found to be 49.2 µM.

In another assay the test system is U251 CNS. In words: NCI anticancer screen, dose series, 48 h.
`CCCCCCCCCCCCC/C=C/[C@@H](O)[C@H](COC1OC(CO)C(OC2OC(CO)C(O)C(OC3(C(=O)O)CC(O)C(NC(C)=O)C(C(O)C(O)CO)O3)C2O)C(O)C1O)N=[N+]=[N-]` (some centres undefined) registered a TGI of 36.1 µM.

`COc1ccc2c(c1)C(=O)OCCC2` registered a TGI of more than 100 µM.

On to `COc1ccc(-n2cnn3c(=O)c4cn[nH]c4nc23)cc1`, for which the TGI was more than 10 µM.

`CCOC(=O)C1(C/C=C/CBr)CCc2ccccc2C1=O` (centres undefined): the TGI amounted to 31.2 µM.

As to `COc1cc(C(C)=O)cc(C(=O)N(C(C)C)C(C)C)c1[Si](C)(C)C`, the TGI was more than 100 µM.

`CCCCSC1=N/C(=C\c2ccco2)C(Cl)=N1`: the TGI was more than 100 µM.

On to `CN1CCc2c(sc3ncn(C)c(=N)c23)C1`, for which the TGI is more than 100 µM.

In turn, `c1ccc(NN=C(c2ccccn2)c2ccccn2)nc1` had a TGI of more than 61.9 µM.
